Assay results: patent publication US20090012446A1, “DEVICES, SYSTEMS AND METHODS FOR RELEASE OF CHEMICAL AGENTS” (priority 2007, published 2009)

What was measured:
[1] = test system: cultured hippocampal network; assay: Evoked reverberatory activity of a cultured hippocampal network, patch clamping (polysynaptic current); format: cell-based, rat
Excerpt: In several studies, the NMDA-type glutamate receptor antagonist AP-5 was, for example, incorporated as a dopant into PPy-coated gold “macro-electrodes” (having an area of 0.77-cm^2). In general, macro-electrodes or macroelectrodes have dimensions greater than 1 mm. A hippocampal neuronal culture and patch clamping were used to test the effectiveness of AP5 release. The drug was released from the electrode into normal recording solution by applying 30 cyclic voltage stimuli. This solution, when added to the neuronal culture, blocked evoked reverberatory activity in the network. […] 280 trials (at 30 s intervals) of evoked activity of a cultured hippocampal network under 5 different conditions were made in several studies as follows: 1. control (ctrl); 2. with 25 μM D-AP5 (AP5); 3. wash with recording solution that soaked the macroelectrode without voltage pulses (wash1); 4. with recording solution containing electrically released AP5 (AP5_r); 5. wash with normal recording solution (wash2). […] FIGS. 3A-3E sets forth example traces of polysynaptic current with one sample trace for each test condition. The scale bar in FIGS. 3A-E is 0.5 nA, 1 s.

[2] = test system: low-density neuronal network; assay: Patch clamp recording of monosynaptic currents in low-density neuronal network on PPy-modified MED64 after command signal; format: cell-based
Excerpt: FIG. 6A is a photomicrograph image of a low-density neuronal network growing on a conducting polymer modified multielectrode array (MED64 available from Panasonic). The platinum coated electrodes are modified with the conducting polymer poly-pyrrole (PPy) containing either CNQX or chloride and phosphate ions (P) from PBS (blank release control). Release of the drug is affected by a “command signal,” which is the delivery of a voltage pulse (−2.5 V, 200 ms). Neuron “firing,” the generation of action potentials, is an all or none phenomenon. Synaptic currents are a continuous and graded phenomenon. For this reason synaptic currents recorded by patch electrodes better reflect the release and diffusion of the synaptic inhibitor CNQX, compared to action potentials recorded by the extracellular electrodes. To monitor the effect of release, individual cells in the network are patch clamped (wherein the patched cell is indicated by an arrow in FIG. 6A). The experimental protocol is described graphically in FIG. 6B. Neural stimulations (ns1,2, . . . ,8) are delivered through the substrate electrodes (but not the releasing electrode). The command signal starts 300 ms prior to ns2, and the currents are recorded by the patch electrode. […] FIG. 6C sets forth 8 columns corresponding to ns1 . . . 8, and 6 rows corresponding to individual trials. […]

[3] = test system: neuronal cultures from E18 rat cortices; assay: Extracellular recording of spontaneous spiking on MED64 microelectrodes coated with polypyrrole/CNQX after current stimulus; format: cell-based
Excerpt: CNQX is an AMPA type glutamate receptor antagonist which inhibits excitatory neural transmission. We electrodeposited polypyrrole/CNQX on the microelectrodes of MED64 probes which were than plated with neuronal cultures from E18 rat cortices. When spontaneous activity was observed on an electrode bearing a CNQX/PPy film, a current stimulus (four 1 s-long pulses of −5 μA with 200 ms refractory periods in between) was applied to the electrode. Recordings were taken before and after the stimulus to observe any inhibition and recovery (during the stimulation it was not possible to record from the particular electrode given the pulse).
It was observed that neural spiking disappeared after applying the stimulus to an electrode bearing the PPy/CNQX. And at a later time point action potentials from the same cell (determined by examination of the waveforms in Offline Sorter and Wave Tracker, Plexon Inc.) reappeared on the electrode and the rate returned to baseline (determined by pre-stimulus control recordings). […] We determined, through repeated release, inhibition and recovery cycles, a time course of inhibition and recovery (see FIG. 5B) that appears consistent with the published effect of CNQX and with the theoretical estimate of CNQX diffusion in solution. In the studies of FIG. 5B, repeated CNQX release trials were performed to determine a time course of recovery. […]

Structure (SMILES) | reverberatory activity (polysynaptic current) ([1]; added AP5, 25 μM D-AP5 in recording solution) | reverberatory activity (polysynaptic current) ([1]; recording solution containing AP5 electrically released from PPy macroelectrode by 30 cyclic voltage stimuli (AP5_r)) | monosynaptic current following release (individual trial, FIG. 6C) ([2]; cell close to a CNQX containing electrode) | size of monosynaptic currents following command signal ([2]; voltage pulse −2.5 V, 200 ms to electrode with PPy film containing CNQX) | neuronal spiking on the releasing/recording electrode after release ([3]; four 1 s pulses of −5 μA, transient, with subsequent recovery to baseline) | spiking activity on neighboring electrodes after release ([3]; inter-electrode distance of 212 μm)
N[C@H](CCCP(=O)(O)O)C(=O)O [AP5, 2-amino-5-phosphonopentanoic acid] | completely blocked | completely blocked |  |  |  | 
N#Cc1cc2nc(O)c(O)nc2cc1[N+](=O)[O-] [CNQX, 6-cyano-7-nitroquinoxaline-2,3-dione] |  |  | almost completely abolished | significant decrease | suppression of neuronal spiking | did not affect spiking activity on neighboring electrodes
